Results as given in patent publication US12077503B2, “Substituted cyclic amides and their use as herbicides” (FMC CORPORATION, priority 2015, dated 2024).

Experiments:
Format in all cases: in vivo
[1] = tested on: barnyardgrass (Echinochloa crus-galli); experiment: Test G Pre-Emergence Protocol; conditions: Echinochloa crus-galli, pre-emergence, 312 h, evaluated after 13 days
Summary of the method: (§1)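 Pots of seeds in standard soil were grown for one day in a glasshouse (24/16 °C day/night, 14 h light, 65% humidity), then sprayed with compound in acetone/water 50:50 with 0.5% Tween 20 at 15.625, 62.5 or 250 g/ha. Damage was scored after 13 days on a 0 (none) to 100 (total) scale.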

[2] = tested on: corn (Zea mays); experiment: Test G Pre-Emergence Protocol; conditions: Zea mays, pre-emergence, 312 h, evaluated after 13 days
Summary of the method: as §1

[3] = tested on: giant foxtail (Setaria faberi); experiment: Test G Pre-Emergence Protocol; conditions: Setaria faberi, pre-emergence, 312 h, evaluated after 13 days
Summary of the method: as §1

[4] = tested on: ivy-leaved morning glory (Ipomoea hederacea); experiment: Test G Pre-Emergence Protocol; conditions: Ipomoea, pre-emergence, 312 h, evaluated after 13 days
Summary of the method: as §1

[5] = tested on: redroot pigweed (Amaranthus retroflexus); experiment: Test G Pre-Emergence Protocol; conditions: Amaranthus retroflexus, pre-emergence, 312 h, evaluated after 13 days
Summary of the method: as §1

[6] = tested on: velvetleaf (Abutilon theophrasti); experiment: Test G Pre-Emergence Protocol; conditions: Abutilon theophrasti, pre-emergence, 312 h, evaluated after 13 days
Summary of the method: as §1

[7] = tested on: barnyardgrass (Echinochloa crus-galli); experiment: Test G Post-Emergence Protocol; conditions: Echinochloa crus-galli, post-emergence, 312 h
Summary of the method: (§2)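 Scores run 0 (no damage) to 100 (total damage) and were taken 13 days after spraying. Plants had been raised in pots for 8 days under glasshouse control (24/16 °C, 14 h photoperiod, 65% humidity) and then treated at 15.625, 62.5 or 250 g/ha.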

[8] = tested on: corn (Zea mays); experiment: Test G Post-Emergence Protocol; conditions: Zea mays, post-emergence, 312 h
Summary of the method: as §2

[9] = tested on: giant foxtail (Setaria faberi); experiment: Test G Post-Emergence Protocol; conditions: Setaria faberi, post-emergence, 312 h
Summary of the method: as §2

[10] = tested on: ivy-leaved morning glory (Ipomoea hederacea); experiment: Test G Post-Emergence Protocol; conditions: Ipomoea, post-emergence, 312 h
Summary of the method: as §2

[11] = tested on: redroot pigweed (Amaranthus retroflexus); experiment: Test G Post-Emergence Protocol; conditions: Amaranthus retroflexus, post-emergence, 312 h
Summary of the method: as §2

[12] = tested on: velvetleaf (Abutilon theophrasti); experiment: Test G Post-Emergence Protocol; conditions: Abutilon theophrasti, post-emergence, 312 h
Summary of the method: as §2

## Cc1ccc([C@@H]2CN(C)C(=O)[C@H]2C(=O)Nc2cccc(F)c2F)cc1Cl (racemic) [Compound 1475]
[1]; 15.625 g ai/ha, read-out: Barnyard grass damage rating (100=total damage to plant; 0=no damage to plant)
  pest or weed control at 15.625 g/ha: 10%
[1]; 62.5 g ai/ha, 100=total damage to plant, 0=no damage to plant, read-out: plant damage rating, Barnyardgrass
  pest or weed control at 62.5 g/ha: 70%
[1]; 250 g ai/ha, read-out: Barnyardgrass damage rating (100=total damage to plant; 0=no damage to plant)
  pest or weed control at 250 g/ha: 80%
[2]; 15.625 g ai/ha, read-out: Corn damage rating (100=total damage to plant; 0=no damage to plant)
  plant injury at 15.625 g/ha: 0%
[2]; 62.5 g ai/ha, 100=total damage to plant, 0=no damage to plant, read-out: plant damage rating, Corn
  plant injury at 62.5 g/ha: 30%
[2]; 250 g ai/ha, read-out: Corn damage rating (100=total damage to plant; 0=no damage to plant)
  plant injury at 250 g/ha: 50%
[3]; 15.625 g ai/ha, read-out: Foxtail, Giant damage rating (100=total damage to plant; 0=no damage to plant)
  pest or weed control at 15.625 g/ha: 70%
[3]; 62.5 g ai/ha, 100=total damage to plant, 0=no damage to plant, read-out: plant damage rating, Foxtail, Giant
  pest or weed control at 62.5 g/ha: 80%
[3]; 250 g ai/ha, read-out: Foxtail, Giant damage rating (100=total damage to plant; 0=no damage to plant)
  pest or weed control at 250 g/ha: 90%
[4]; 15.625 g ai/ha, read-out: Morning-glory, Ivy-leaved damage rating (100=total damage to plant; 0=no damage to plant)
  pest or weed control at 15.625 g/ha: 0%
[4]; 62.5 g ai/ha, 100=total damage to plant, 0=no damage to plant, read-out: plant damage rating, Morningglory, Ivy-leaved
  pest or weed control at 62.5 g/ha: 0%
[4]; 250 g ai/ha, read-out: Morningglory, Ivy-leaved damage rating (100=total damage to plant; 0=no damage to plant)
  pest or weed control at 250 g/ha: 10%
[5]; 15.625 g ai/ha, read-out: Pigweed, Redroot damage rating (100=total damage to plant; 0=no damage to plant)
  pest or weed control at 15.625 g/ha: 0%
[5]; 62.5 g ai/ha, 100=total damage to plant, 0=no damage to plant, read-out: plant damage rating, Pigweed, Redroot
  pest or weed control at 62.5 g/ha: 0%
[5]; 250 g ai/ha, read-out: Pigweed, Redroot damage rating (100=total damage to plant; 0=no damage to plant)
  pest or weed control at 250 g/ha: 0%
[6]; 15.625 g ai/ha, read-out: Velvetleaf damage rating (100=total damage to plant; 0=no damage to plant)
  pest or weed control at 15.625 g/ha: 0%
[6]; 62.5 g ai/ha, 100=total damage to plant, 0=no damage to plant, read-out: plant damage rating, Velvetleaf
  pest or weed control at 62.5 g/ha: 0%
[6]; 250 g ai/ha, read-out: Velvetleaf damage rating (100=total damage to plant; 0=no damage to plant)
  pest or weed control at 250 g/ha: 0%
[7]; 15.625 g ai/ha, evaluated after 13 days (100=total damage to plant; 0=no damage to plant), read-out: Barnyardgrass damage rating
  pest or weed control at 15.625 g/ha: 30%
[7]; 62.5 g ai/ha, evaluated after 13 days, read-out: Barnyardgrass damage rating (100=total damage to plant; 0=no damage to plant)
  pest or weed control at 62.5 g/ha: 60%
[7]; 250 g ai/ha, evaluated after 13 days, read-out: damage to plant, Barnyardgrass (100=total damage to plant; 0=no damage to plant)
  pest or weed control at 250 g/ha: 50%
[8]; 15.625 g ai/ha, evaluated after 13 days (100=total damage to plant; 0=no damage to plant), read-out: Corn damage rating
  plant injury at 15.625 g/ha: 30%
[8]; 62.5 g ai/ha, evaluated after 13 days, read-out: Corn damage rating (100=total damage to plant; 0=no damage to plant)
  plant injury at 62.5 g/ha: 40%
[8]; 250 g ai/ha, evaluated after 13 days, read-out: damage to plant, Corn (100=total damage to plant; 0=no damage to plant)
  plant injury at 250 g/ha: 70%
[9]; 15.625 g ai/ha, evaluated after 13 days (100=total damage to plant; 0=no damage to plant), read-out: Foxtail, Giant damage rating
  pest or weed control at 15.625 g/ha: 70%
[9]; 62.5 g ai/ha, evaluated after 13 days, read-out: Foxtail, Giant damage rating (100=total damage to plant; 0=no damage to plant)
  pest or weed control at 62.5 g/ha: 70%
[9]; 250 g ai/ha, evaluated after 13 days, read-out: damage to plant, Foxtail, Giant (100=total damage to plant; 0=no damage to plant)
  pest or weed control at 250 g/ha: 70%
[10]; 15.625 g ai/ha, evaluated after 13 days (100=total damage to plant; 0=no damage to plant), read-out: Morningglory, Ivy-leaved damage rating
  pest or weed control at 15.625 g/ha: 20%
[10]; 62.5 g ai/ha, evaluated after 13 days, read-out: Morningglory, Ivy-leaved damage rating (100=total damage to plant; 0=no damage to plant)
  pest or weed control at 62.5 g/ha: 0%
[10]; 250 g ai/ha, evaluated after 13 days, read-out: damage to plant, Morningglory, Ivy-leaved (100=total damage to plant; 0=no damage to plant)
  pest or weed control at 250 g/ha: 70%
[11]; 15.625 g ai/ha, evaluated after 13 days (100=total damage to plant; 0=no damage to plant), read-out: Pigweed, Redroot damage rating
  pest or weed control at 15.625 g/ha: 10%
[11]; 62.5 g ai/ha, evaluated after 13 days, read-out: Pigweed, Redroot damage rating (100=total damage to plant; 0=no damage to plant)
  pest or weed control at 62.5 g/ha: 30%
[11]; 250 g ai/ha, evaluated after 13 days, read-out: damage to plant, Pigweed, Redroot (100=total damage to plant; 0=no damage to plant)
  pest or weed control at 250 g/ha: 50%
[12]; 15.625 g ai/ha, evaluated after 13 days (100=total damage to plant; 0=no damage to plant), read-out: Velvetleaf damage rating
  pest or weed control at 15.625 g/ha: 10%
[12]; 62.5 g ai/ha, evaluated after 13 days, read-out: Velvetleaf damage rating (100=total damage to plant; 0=no damage to plant)
  pest or weed control at 62.5 g/ha: 10%
[12]; 250 g ai/ha, evaluated after 13 days, read-out: damage to plant, Velvetleaf (100=total damage to plant; 0=no damage to plant)
  pest or weed control at 250 g/ha: 10%
